Data as given in article PMC12051620, “Molecular basis underlying the specificity of an antagonist AA92593 for mammalian melanopsins” (The Journal of Biological Chemistry, 2025).

Legend:
Experiment in all cases: GsX GloSensor assay with Gsα/q11
Assay type in all cases: cell-based
[1] = biological target: T1, human melanopsin F94^2.61C mutant (Homo sapiens, UniProt Q9UHM6, F127C); details: 16.7 μM AA92593, COS-1 cells, difference not statistically significant
T1 construct: the C-terminal amino acid residues (94, 140, 200, 214, 296, and 308 residues); expressed in transfected cells; host or cells: COS-1
T1 sequence (Q9UHM6 1-384 F127C limits assumed): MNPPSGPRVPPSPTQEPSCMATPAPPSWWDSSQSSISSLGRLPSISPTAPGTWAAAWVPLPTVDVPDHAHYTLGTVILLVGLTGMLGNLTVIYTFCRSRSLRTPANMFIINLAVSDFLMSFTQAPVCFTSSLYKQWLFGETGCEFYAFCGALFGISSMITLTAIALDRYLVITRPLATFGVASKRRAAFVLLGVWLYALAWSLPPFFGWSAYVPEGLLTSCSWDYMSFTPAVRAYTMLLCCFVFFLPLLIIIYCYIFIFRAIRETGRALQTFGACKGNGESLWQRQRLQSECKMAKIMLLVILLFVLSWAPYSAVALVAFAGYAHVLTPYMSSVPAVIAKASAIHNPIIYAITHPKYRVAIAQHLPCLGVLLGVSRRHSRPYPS
From the text: (§1) We substituted the residues Phe-94^2.61, Ser-188^ECL2, and Ser-269^6.52 in human melanopsin (Fig. 2, A and B) and examined the inhibitory effect of AA92593 on these mutants. Substitution of these amino acid residues with the corresponding amino acids in non-mammalian-type melanopsins (F94^2.61C, S188^ECL2T, and S269^6.52A) reduced the inhibitory effect of AA92593 compared to its effect on WT (Fig. 2, C–E). […] The antagonistic effect of AA92593 was reduced by ∼21% and ∼24% in the S188^ECL2T and S269^6.52A mutants, respectively (Fig. 2, D, E, and G). […] The volume change in side chain would affect arrangement of the amino acid residues around AA92593 (see below).
(§2) For GloSensor assay, opsins, GloSensor assay sensor (coded by pGlo-22F), and NanoBiT-tagged G proteins were transiently expressed in COS-1 cells (kindly provided from Dr David Farrens, Oregon Health and Science University) using PEI as described previously ([24], [52]). For the GsX GloSensor assay ([12], [13]), each well of a 96-well assay plate (Corning) was transfected with 50 ng opsin plasmid, 16.7 ng G protein plasmid, 50 ng pGlo-22F plasmid (Promega), and 500 ng PEI in 25 μl Opti-mem and 75 μl Dulbecco's modified Eagle's medium (D-MEM). […] For GFP-fluorescence microscopy, a 35-mm cell culture dish (IWAKI) was transfected with 2 μg melanopsin-GFP plasmid and 8 μg PEI in 400 μl Opti-mem and 1.2 ml D-MEM. […]
(§3) The transfected COS-1 cells were incubated at 37 °C, 5% CO2 for 2 days, and the medium was aspirated and exchanged with 50 μl of HBSS (145 mM NaCl, 10 mM D-glucose, 5 mM KCl, 1 mM MgCl2, 1.7 mM CaCl2, 1.5 mM NaHCO3, 10 mM Hepes, pH 7.4), containing 33.3, 20, 10, 2, 0.2, 0.02, 0.002, or 0 μM AA92593, 0.5% dimetyl sulfoxide (DMSO), and 4% (vol/vol) GloSensor cAMP reagent stock solution. […] Then, the cells were incubated at room temperature for 1 h, and luminescence changes were monitored. After incubation of the cells with AA92593, luminescence measurement was interrupted, the plate was ejected, and the cells were added with 50 μl of HBSS containing 0.2 μM 9-cis-retinal. […] Luminescence was measured using GM-2000 or GM-3510 microplate reader (Promega). Luminescence level of each well was measured every 30 s with integration time of 0.6 to 0.9 s. To illuminate opsins, luminescence measurement was interrupted, the plate was ejected, and the plate was illuminated by white light with CN-160 LED video light (light intensity, ∼9 mW/cm^2) (NEEWER). […] After illumination, luminescence measurement was resumed. The measured luminescence levels were normalized to the level at the starting point (time = 0 min). […]

[2] = biological target: T2, human melanopsin S188^ECL2A mutant (Homo sapiens, UniProt Q9UHM6, S222A); details: 16.7 μM AA92593, COS-1 cells
T2 construct: expressed in transfected cells; host or cells: COS-1
T2 sequence (Q9UHM6 1-384 S222A limits assumed): as the sequence (Q9UHM6 1-384 F127C limits assumed) above, with C127F, S222A counted along it
From the text: as §1, §2, §3

[3] = system: human melanopsin S188^ECL2T mutant; details: 16.7 μM AA92593, COS-1 cells
From the text: as §1, §2, §3

[4] = system: human melanopsin S269^6.52A mutant; details: 16.7 μM AA92593, COS-1 cells
From the text: as §1, §2, §3

COc1ccc(S(=O)(=O)N2CCCCC2)cc1C [AA92593]
inhibitory effect of AA92593 compared to WT [1]: consistently weaker | change in the effect of AA92593 vs WT [2]: did not induce a significant change | reduction of the antagonistic effect of AA92593 vs WT [3]: ~21% | reduction of the antagonistic effect of AA92593 vs WT [4]: ~24%
